Literature values, collected in patent US20210347751A1, “METHOD FOR EFFICIENT EXTRACTION OF PLANT ANTHOCYANIDIN” (priority 2018, published 2021).
Where two headings read alike, the source gives them in different places. Blank lines part the entries; values can stand above or below the compound they belong to.

Key:
[1] = in vivo

Compound: [Cl-].[K+] [potassium chloride]
Water solubility (10° C.): 31.2 gram/100 g of water | Water solubility (20° C.): 34.2 gram/100 g of water | Water solubility (30° C.): 37.2 gram/100 g of water | Water solubility (40° C.): 40.1 gram/100 g of water | Water solubility (60° C.): 45.8 gram/100 g of water | Water solubility (70° C.): 48.8 gram/100 g of water | Water solubility (80° C.): 51.3 gram/100 g of water | Water solubility (90° C.): 53.9 gram/100 g of water | Water solubility (100° C.): 56.3 gram/100 g of water

bioavailability in the human body [1]: almost zero
Compound: Anthocyanins
